Assay [1] is described as follows: AMPA receptor scintillation proximity binding assay. Details: species or system Homo sapiens; call rule not given here.
Assay [2] has as its target Sigma non-opioid intracellular receptor 1 (Homo sapiens) (UniProt Q99720). To be noted: Compound concentration 10.0 uM.

Chain of Sigma non-opioid intracellular receptor 1 (Homo sapiens) (Q99720 whole entry): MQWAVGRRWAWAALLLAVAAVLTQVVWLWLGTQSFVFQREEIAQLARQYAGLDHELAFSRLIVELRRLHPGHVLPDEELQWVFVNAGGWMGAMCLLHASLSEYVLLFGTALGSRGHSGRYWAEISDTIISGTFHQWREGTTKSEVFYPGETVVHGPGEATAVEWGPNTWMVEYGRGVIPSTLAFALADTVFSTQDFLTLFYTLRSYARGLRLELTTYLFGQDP

Consider `Cc1cn([C@H](C)CC#N)c(=O)c2cc(Cn3nc(C(F)F)cc3Cl)nn12`, for which, in assay [1], the IC50 (commonly the midpoint of a concentration-inhibition curve) is > 30 µM (not active). In addition, the inhibition (usually the relative decrease from the control value, in per cent) in assay [2] was 1.48%.

(Values after ChEMBL document CHEMBL5058641, “Data for DCP probe TP-050” (2022).)
